Assay results as given in patent publication US9920014B2, “Selective inhibition of bacterial topoisomerase I” (THE FLORIDA INTERNATIONAL BOARD OF TRUSTEES MODESTO A. …, priority 2013, dated 2018).
In brackets after ≈: the same amount, converted by molar mass. Several values for one entry are separate records, joined by “and”; a condition that tells them apart may be missing. Equal entries are not always repeated.

Key:
Escherichia coli K12 = experiment: MIC by microbroth dilution, E. coli K12; assay type: cell-based; conditions: for MIC: Escherichia coli, K12, 24 h 37° C., read-out: MIC S5 = E. coli K 12; for MIC S5 = E. coli K 12: 24 h 37° C.
Protocol: Minimum Inhibitory Concentration (MIC) Determination:
Bacteria used in this study were Staphylococcus aureus ATCC 29213, Escherichia coli ATCC 25922, Escherichia coli K12, Staphylococcus aureus ATCC 33591, Pseudomonas aeruginosa ATCC 27853, and Enterococcus faecalis ATCC 29212. All compounds were tested by the microbroth dilution method following Clinical and Laboratory Standards Institute guidelines. Briefly, Mueller-Hinton broth (Difco Laboratories, Becton Dickinson) was inoculated with each organism and incubated at 37° C. with shaking to establish logarithmic growth. Following incubation, each culture was pelleted by centrifugation (3,500×g for 5 min) and resuspended in 0.85% sterile saline solution to an optical density at 625 nm of 0.1. Samples were tested in triplicate using 96 well microplates (Corning Costar Corp. Cambridge, Mass.), yielding final bacterial concentrations of 5×10^5 CFU/mL, and incubated for 24 h at 37° C. Following incubation, optical densities of each well were determined with a μQuant microplate spectrophotometer (BioTek Instruments, Inc., Winooski, Vt.) at 625 nm.

[1] = molecular target: E. coli DNA topoisomerase I (Escherichia coli, UniProt P06612); experiment: Inhibition assay against E. coli DNA topoisomerase I (plasmid relaxation, agarose gel); assay type: biochemical; conditions: 6 nM enzyme; for IC50: supercoiled pBAD-GFPuv, 15 min 37° C., average of at least three determinations, read-out: IC50 ecTopo I; for concentration needed to completely inhibit the activities of E. coli DNA topoisomerase I: gel titration (FIG. 3A, 3B)
Protocol: Inhibition Assays Against E. coli DNA Topoisomerase I:
Inhibition assays were used to determine the activities of the newly synthesized compounds against E. coli DNA topoisomerase I. The reaction mixture (30 μl) contained 20 mM Tris-HCl at pH 7.9, 50 mM KAc, 10 mM Mg(Ac)2, 1 mM DTT, 1 μg/mL BSA, 150 ng of the supercoiled plasmid pBAD-GFPuv, 6 nM of E. coli topoisomerase I, and one of the compounds at a specified concentration that ranges from 0.5 to 45 μM. All components were assembled on ice and incubated for 15 min at 37° C. After the incubation, the reactions were terminated by extraction with an equal volume of phenol. The topological state of the DNA samples was analyzed with 1% agarose gel electrophoresis in 1×TAE buffer, pH 7.8. Following electrophoresis, the agarose gel was stained with Ethidium Bromide, destained, and photographed under UV light. The intensity of DNA topoisomers was determined using KODAK 1D Image Analysis Software. The percentage of (−) supercoiled DNA was calculated from a comparison of the intensity of the (−) supercoiled band with the total intensity of all DNA topoisomers. The IC50 was calculated as the amount of the drug for which 50% of the DNA was still in a (−) supercoiled state.

dA60.dT60 duplex = experiment: UV thermal denaturation of AT rich DNA duplex; assay type: binding; conditions: ligand 10 μM, DNA 1 μM/duplex, 10 mM sodium cacodylate, 0.1 mM EDTA, 100 mM NaCl, pH 7.0; for ΔTm (thermal stabilization): duplex alone 62.5° C.
Protocol: Nucleic acids were purchased from Integrated DNA Technologies (Coraville, Iowa). The concentration of the nucleic acid was determined using the extinction coefficient provided by the supplier. The DNA duplex was prepared by heating the dA60 and dT60 in equimolar ratio in buffer 10 mM sodium cacodylate, 0.1 mM EDTA and 100 mM NaCl at pH 7.0 at 95° C. for 15 minutes and then slowly allowing it to cool back to room temperature. After two days of incubation, the duplex formation was checked by UV thermal denaturation experiments. The stock solution was stored at 4° C. and diluted to desired concentrations as required.
Ultra Violet (UV) Thermal Denaturation Experiments:
All UV spectra were obtained on a 12 cell holder Cary 1E UV-Vis spectrophotometer equipped with temperature controller. Quartz cells with 1 cm path length were used for all the experiments. Spectrophotometer stability and wavelength alignment were checked prior to initiation of each thermal denaturation experiment. For all experiments, the samples were prepared by diluting a stock sample. The melting of DNA with and without the ligand was performed at a heating rate of 0.2° C./min. Samples were brought back to 20° C. after the experiment. All UV melting experiments were monitored at 260 nm. For the Tm determinations, derivatives were used. Data points were recorded every 1.0° C. The DNA concentration was 1 μM/duplex while the ligand concentration was 10 μM. All ligand solutions were prepared in dimethyl sulfoxide (DMSO) as concentrated stock solution (6-10 mM) and diluted to desired concentrations in buffer.
Bisbenzimidazoles are known to bind to the minor groove of AT rich DNA. The UV thermal denaturation experiments of the synthesized ligands were carried out with an AT rich DNA duplex. A 60 mer B-DNA duplex that was prepared by mixing equimolar amounts of a 60 mer homoadenine with a 60 mer homothymine polymer.

E. coli DNA topoisomerase I, sequence (P06612 whole entry): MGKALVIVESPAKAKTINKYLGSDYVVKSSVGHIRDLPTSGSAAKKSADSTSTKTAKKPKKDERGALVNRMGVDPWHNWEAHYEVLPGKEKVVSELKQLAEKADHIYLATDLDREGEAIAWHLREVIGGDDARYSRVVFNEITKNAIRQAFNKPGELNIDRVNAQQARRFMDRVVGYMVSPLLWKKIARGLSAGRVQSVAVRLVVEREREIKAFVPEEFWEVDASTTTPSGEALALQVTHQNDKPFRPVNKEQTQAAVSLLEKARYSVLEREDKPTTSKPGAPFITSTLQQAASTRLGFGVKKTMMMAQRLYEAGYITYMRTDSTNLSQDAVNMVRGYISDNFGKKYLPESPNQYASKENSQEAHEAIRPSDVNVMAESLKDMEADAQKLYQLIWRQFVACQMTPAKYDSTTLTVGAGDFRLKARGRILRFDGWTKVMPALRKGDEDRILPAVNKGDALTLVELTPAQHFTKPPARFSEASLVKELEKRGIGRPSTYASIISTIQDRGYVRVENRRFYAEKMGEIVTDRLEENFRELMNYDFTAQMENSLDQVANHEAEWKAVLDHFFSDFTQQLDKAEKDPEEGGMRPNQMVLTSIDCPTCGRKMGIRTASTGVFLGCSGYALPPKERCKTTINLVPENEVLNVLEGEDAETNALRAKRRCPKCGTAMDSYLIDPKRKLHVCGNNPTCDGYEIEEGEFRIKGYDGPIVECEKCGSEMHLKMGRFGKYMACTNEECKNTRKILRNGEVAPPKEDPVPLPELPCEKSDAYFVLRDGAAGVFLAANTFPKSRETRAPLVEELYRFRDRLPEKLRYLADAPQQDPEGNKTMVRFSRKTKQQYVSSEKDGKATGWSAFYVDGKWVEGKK

## C#CCOCCCCOc1ccc(-c2nc3ccc(-c4nc5ccc(N6CCN(C)CC6)cc5[nH]4)cc3[nH]2)cc1 [DPA 154, 6-(4-methylpiperazin-1-yl)-2′-(4-(4-(prop-2-ynyloxy)butoxy)phenyl)-1H,3′H-2,5′-bibenzo[d]imidazole]
Escherichia coli K12
  MIC: 8 to 16 µg/mL (≈ 15 to 29.9 µM)
[1]
  IC50: 6.63 ± 0.47 µM
dA60.dT60 duplex
  Tm: 85.9 °C
  ΔTm (thermal stabilization): 23.4 °C

## C#CCCCCCCCCCOc1ccc(-c2nc3ccc(-c4nc5ccc(N6CCN(C)CC6)cc5[nH]4)cc3[nH]2)cc1 [DPA 153, 6-(4-methylpiperazin-1-yl)-2′-(4-(undec-10-ynyloxy)phenyl)-1H,3′H-2,5′-bibenzo[d]imidazole]
Escherichia coli K12
  MIC: 8 to 16 µg/mL (≈ 13.9 to 27.8 µM)
[1]
  IC50: 2.47 ± 0.06 µM
dA60.dT60 duplex
  Tm: 70.5 °C
  ΔTm (thermal stabilization): 8 °C

## C#CCOc1ccc(-c2nc3ccc(-c4nc5ccc(N6CCN(C)CC6)cc5[nH]4)cc3[nH]2)cc1 [DPA 151, 6-(4-methylpiperazin-1-yl)-2′-(4-(prop-2-ynyloxy)phenyl)-1H,3′H-2,5′-bibenzo[d]imidazole]
Escherichia coli K12
  MIC: 8 µg/mL (≈ 17.3 µM)
[1]
  concentration needed to completely inhibit the activities of E. coli DNA topoisomerase I: approximately 5 μM
  IC50: 5.5 ± 0.5 µM
dA60.dT60 duplex
  Tm: 85.4 °C
  ΔTm (thermal stabilization): 22.9 °C and 23.9 °C

## CN1CCN(c2ccc3[nH]c(-c4ccc5[nH]c(-c6ccc(O)cc6)nc5c4)nc3c2)CC1 [Hoechst 33258, reference compound]
Escherichia coli K12
  MIC S5 = E. coli K 12: 16 µg/mL (≈ 37.7 µM)
[1]
  concentration needed to completely inhibit the activities of E. coli DNA topoisomerase I: approximately 20 μM
  IC50: 19.5 ± 1.32 µM
dA60.dT60 duplex
  Tm: 87.1 °C
  ΔTm (thermal stabilization): ~24 °C and 24.6 °C

## C#CCCCCOc1ccc(-c2nc3ccc(-c4nc5ccc(N6CCN(C)CC6)cc5[nH]4)cc3[nH]2)cc1 [DPA 152, 2′-(4-(hex-5-ynyloxy)phenyl)-6-(4-methylpiperazin-1-yl)-1H,3′H-2,5′-bibenzo[d]imidazole]
Escherichia coli K12
  MIC: 8 to 16 µg/mL (≈ 15.9 to 31.7 µM)
[1]
  IC50: 4.57 ± 0.81 µM
dA60.dT60 duplex
  Tm: 83.4 °C
  ΔTm (thermal stabilization): 20.9 °C

## CCOc1ccc(-c2nc3ccc(-c4nc5ccc(N6CCN(C)CC6)cc5[nH]4)cc3[nH]2)cc1 [Hoechst 33342, reference compound]
Escherichia coli K12
  MIC S5 = E. coli K 12: 8 µg/mL (≈ 17.7 µM)
[1]
  IC50: 29.8 ± 2.75 µM
dA60.dT60 duplex
  Tm: 86.6 °C
  ΔTm (thermal stabilization): ~24 °C
dA60.dT60 duplex; listed as Hoechst 33242
  ΔTm (thermal stabilization): 24.1 °C
